From PubChem BioAssay (NCI)
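Method: 48-hour compound exposure of cells in 96-well plates, five concentrations, linear interpolation of endpoints. TGI: concentration producing complete growth inhibition.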

What was measured:
Assay in all cases: NCI tumour cell line growth inhibition, 48 h
[1] = system: 786-0 renal
[2] = system: SF-539 CNS
[3] = system: COLO 205 colon
[4] = system: HS 578T breast
[5] = system: A549 NSCLC
[6] = system: SK-MEL-2 melanoma
[7] = system: HOP-92 NSCLC
[8] = system: U251 CNS
[9] = system: HCC-2998 colon
[10] = system: EKVX NSCLC
[11] = system: NCI-H23 lung
[12] = system: OVCAR-5 ovarian
[13] = system: HCT-15 colon
[14] = system: LOX IMVI melanoma
[15] = system: MDA-N
[16] = system: NCI/ADR-RES ovarian
[17] = system: CAKI-1 renal
[18] = system: HT29 colon
[19] = system: UO-31 renal
[20] = system: OVCAR-3 ovarian
[21] = system: PC-3 prostate
[22] = system: DU-145 prostate
[23] = system: SW-620 colon
[24] = system: MCF7 breast
[25] = system: KM12 colon
[26] = system: NCI-H522 lung
[27] = system: NCI-H226 lung
[28] = system: OVCAR-8 ovarian
[29] = system: SNB-19 CNS
[30] = system: TK-10 renal
[31] = system: UACC-257 melanoma
[32] = system: CCRF-CEM leukemia
[33] = system: M14 melanoma
[34] = system: SK-MEL-5 melanoma
[35] = system: SK-MEL-28 melanoma
[36] = system: K-562 leukemia
[37] = system: OVCAR-4 ovarian
[38] = system: SF-268 CNS
[39] = system: SF-295 CNS
[40] = system: MDA-MB-231 breast
[41] = system: RPMI-8226 leukemia
[42] = system: IGROV1 ovarian
[43] = system: MOLT-4 leukemia
[44] = system: NCI-H460 lung
[45] = system: HCT-116 colon
[46] = system: BT-549 breast
[47] = system: MDA-MB-435
[48] = system: HL-60(TB) leukemia
[49] = system: SN12C renal
[50] = system: T-47D breast
[51] = system: ACHN renal
[52] = system: A498 renal
[53] = system: HOP-62 NSCLC
[54] = system: RXF 393 renal
[55] = system: UACC-62 melanoma
[56] = system: MALME-3M melanoma
[57] = system: SK-OV-3 ovarian
[58] = system: SNB-75 CNS

Cc1ccc(C(=O)N/N=C(\N=Nc2cccc([N+](=O)[O-])c2)c2ccc(N(C)C)cc2)cc1
TGI [1]: > 100 µM
TGI [2]: > 100 µM
TGI [3]: > 100 µM
TGI [4]: > 100 µM
TGI [5]: > 100 µM
TGI [6]: > 100 µM
TGI [7]: > 100 µM
TGI [8]: > 100 µM
TGI [9]: > 100 µM
TGI [10]: > 100 µM
TGI [11]: > 100 µM
TGI [12]: > 100 µM
TGI [13]: > 100 µM
TGI [14]: > 100 µM
TGI [15]: > 100 µM
TGI [16]: > 100 µM
TGI [17]: > 100 µM
TGI [18]: > 100 µM
TGI [19]: > 100 µM
TGI [20]: > 100 µM
TGI [21]: > 100 µM
TGI [22]: 85.5 µM
TGI [23]: > 100 µM
TGI [24]: > 100 µM
TGI [25]: > 100 µM
TGI [26]: > 100 µM
TGI [27]: > 100 µM
TGI [28]: > 100 µM
TGI [29]: > 100 µM
TGI [30]: > 100 µM
TGI [31]: > 100 µM
TGI [32]: > 100 µM
TGI [33]: > 100 µM
TGI [34]: > 100 µM
TGI [35]: > 100 µM
TGI [36]: > 100 µM
TGI [37]: > 100 µM
TGI [38]: > 100 µM
TGI [39]: > 100 µM
TGI [40]: > 100 µM
TGI [41]: > 100 µM
TGI [42]: > 100 µM
TGI [43]: > 100 µM
TGI [44]: > 100 µM
TGI [45]: > 100 µM
TGI [46]: > 100 µM
TGI [47]: > 100 µM
TGI [48]: > 100 µM
TGI [49]: > 100 µM

Cc1ccc(-c2cc(-c3ccccc3)nc(N)n2)c(O)c1
TGI [1]: > 100 µM
TGI [2]: > 100 µM
TGI [3]: > 100 µM
TGI [5]: > 100 µM
TGI [6]: > 100 µM
TGI [50]: > 100 µM
TGI [7]: > 100 µM
TGI [8]: > 100 µM
TGI [9]: > 100 µM
TGI [11]: > 100 µM
TGI [12]: > 100 µM
TGI [13]: > 100 µM
TGI [51]: > 100 µM
TGI [15]: > 100 µM
TGI [16]: > 100 µM
TGI [52]: > 100 µM
TGI [17]: > 100 µM
TGI [18]: > 100 µM
TGI [53]: > 100 µM
TGI [19]: > 100 µM
TGI [54]: > 100 µM
TGI [20]: > 100 µM
TGI [21]: > 100 µM
TGI [22]: > 100 µM
TGI [23]: > 100 µM
TGI [24]: > 100 µM
TGI [25]: > 100 µM
TGI [55]: > 100 µM
TGI [26]: > 100 µM
TGI [28]: > 100 µM
TGI [29]: > 100 µM
TGI [30]: > 100 µM
TGI [31]: > 100 µM
TGI [32]: > 100 µM
TGI [33]: > 100 µM
TGI [34]: > 100 µM
TGI [35]: > 100 µM
TGI [36]: > 100 µM
TGI [37]: > 100 µM
TGI [38]: > 100 µM
TGI [39]: > 100 µM
TGI [40]: > 100 µM
TGI [56]: > 100 µM
TGI [41]: > 100 µM
TGI [43]: > 100 µM
TGI [57]: > 100 µM
TGI [44]: > 100 µM
TGI [45]: > 100 µM
TGI [46]: > 100 µM
TGI [47]: > 100 µM
TGI [48]: > 100 µM
TGI [49]: > 100 µM

C[C@H]1[C@H](N2CCCC2)O[Si](C(C)(C)C)(C(C)(C)C)[C@@H]1C
TGI [1]: > 100 µM
TGI [2]: > 100 µM
TGI [3]: > 100 µM
TGI [5]: > 100 µM
TGI [6]: > 100 µM
TGI [50]: > 100 µM
TGI [7]: 4.7 µM
TGI [8]: > 100 µM
TGI [9]: > 100 µM
TGI [10]: > 100 µM
TGI [11]: > 100 µM
TGI [12]: > 100 µM
TGI [13]: > 100 µM
TGI [14]: > 100 µM
TGI [51]: > 100 µM
TGI [15]: > 100 µM
TGI [16]: > 100 µM
TGI [52]: > 100 µM
TGI [17]: > 100 µM
TGI [18]: > 100 µM
TGI [53]: > 100 µM
TGI [19]: > 100 µM
TGI [20]: > 100 µM
TGI [21]: > 100 µM
TGI [23]: > 100 µM
TGI [24]: > 100 µM
TGI [25]: > 100 µM
TGI [55]: > 100 µM
TGI [26]: > 100 µM
TGI [27]: > 100 µM
TGI [28]: > 100 µM
TGI [29]: > 100 µM
TGI [30]: > 100 µM
TGI [31]: > 100 µM
TGI [32]: > 100 µM
TGI [33]: > 100 µM
TGI [34]: > 100 µM
TGI [35]: > 100 µM
TGI [36]: > 100 µM
TGI [37]: > 100 µM
TGI [39]: > 100 µM
TGI [58]: > 100 µM
TGI [40]: > 100 µM
TGI [56]: > 100 µM
TGI [41]: > 100 µM
TGI [42]: > 100 µM
TGI [43]: > 100 µM
TGI [57]: > 100 µM
TGI [45]: > 100 µM
TGI [46]: > 100 µM
TGI [47]: > 100 µM
TGI [48]: 48.5 µM
TGI [49]: > 100 µM
